Measured values published in the supplement of paper PMC10307832.

Experiments:
Experiment in all cases: relative viability (nuclei count vs DMSO), 5 days (fraction); higher = more cells survive
RO-3306 + Lapatinib = compound: C1=CC2=C(C=CC(=C2)C=C3C(=O)NC(=NCC4=CC=CS4)S3)N=C1 [RO-3306] + CS(=O)(=O)CCNCc1ccc(-c2ccc3ncnc(Nc4ccc(OCc5cccc(F)c5)c(Cl)c4)c3c2)o1 [Lapatinib] (partner 2 µM)
Procedure, shortened: (§1)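 One day after seeding in 1536-well plates, lung cancer cell lines were dosed by pin tool. Dosing was either single-drug or a fixed anchor-drug dose plus five library-drug doses (not always all listed) in √10 steps. After 5 days, nuclei were stained in one fix-and-stain step and counted on 4× images, and relative viability is the nuclei count of treated wells over that of vehicle wells, given as the median of duplicate plates.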

[1] = compound: O=S(=O)(c1ccccc1)N(CC(F)(F)F)c1ccc(C(O)(C(F)(F)F)C(F)(F)F)cc1 + CC(=O)Nc1cccc(-n2c(=O)n(C3CC3)c(=O)c3c(Nc4ccc(I)cc4F)n(C)c(=O)c(C)c32)c1 [Trametinib] (partner 0.02 µM)
Procedure, shortened: as §1

[2] = compound: O=S(=O)(c1ccccc1)N(CC(F)(F)F)c1ccc(C(O)(C(F)(F)F)C(F)(F)F)cc1 + CS(=O)(=O)N1CCN(Cc2cc3nc(-c4cccc5[nH]ncc45)nc(N4CCOCC4)c3s2)CC1 [Pictilisib] (partner 1 µM)
Procedure, shortened: as §1

[3] = compound: O=S(=O)(c1ccccc1)N(CC(F)(F)F)c1ccc(C(O)(C(F)(F)F)C(F)(F)F)cc1 + C[C@@H](Oc1cc(-c2cnn(C3CCNCC3)c2)cnc1N)c1c(Cl)ccc(F)c1Cl [Crizotinib] (partner 1 µM)
Procedure, shortened: as §1

[4] = compound: O=S(=O)(c1ccccc1)N(CC(F)(F)F)c1ccc(C(O)(C(F)(F)F)C(F)(F)F)cc1 + Nc1nc2[nH]cc(CCc3ccc(C(=O)N[C@@H](CCC(=O)O)C(=O)O)cc3)c2c(=O)[nH]1 [Pemetrexed] (partner 0.2 µM)
Procedure, shortened: as §1

[5] = compound: O=S(=O)(c1ccccc1)N(CC(F)(F)F)c1ccc(C(O)(C(F)(F)F)C(F)(F)F)cc1 + O=C(CCCCCCC(=O)Nc1ccccc1)NO [Vorinostat] (partner 1 µM)
Procedure, shortened: as §1

| Cell Line | relative viability (RO-3306 + Lapatinib; first compound 0.01 µM) | relative viability (RO-3306 + Lapatinib; first compound 0.03162 µM) | relative viability (RO-3306 + Lapatinib; first compound 0.1 µM) | relative viability (RO-3306 + Lapatinib; first compound 0.3162 µM) | relative viability (RO-3306 + Lapatinib; first compound 1 µM) | relative viability ([1]; first compound 0.8 µM) | relative viability ([1]; first compound 2.53 µM) | relative viability ([1]; first compound 8 µM) | relative viability ([2]; first compound 0.8 µM) | relative viability ([2]; first compound 2.53 µM) | relative viability ([2]; first compound 8 µM) | relative viability ([3]; first compound 0.8 µM) | relative viability ([3]; first compound 2.53 µM) | relative viability ([3]; first compound 8 µM) | relative viability ([4]; first compound 0.8 µM) | relative viability ([4]; first compound 2.53 µM) | relative viability ([4]; first compound 8 µM) | relative viability ([5]; first compound 0.8 µM) | relative viability ([5]; first compound 2.53 µM) | relative viability ([5]; first compound 8 µM) |
| --- | --- | --- | --- | --- | --- | --- | --- | --- | --- | --- | --- | --- | --- | --- | --- | --- | --- | --- | --- | --- |
| LC-2-ad | 0.949 | 0.979 | 0.868 | 0.948 | 0.883 | 0.881 | 0.884 | 0.758 | 0.469 | 0.377 | 0.437 | 0.478 | 0.498 | 0.443 | 0.274 | 0.286 | 0.244 | 0.734 | 0.657 | 0.602 |
| NCI-H1651 | 0.839 | 0.648 | 0.77 | 0.972 | 0.644 | 0.853 | 0.867 | 0.739 | 0.681 | 0.598 | 0.598 | 1.02 | 0.882 | 0.849 | 0.726 | 0.61 | 0.521 | 0.626 | 0.547 | 0.525 |
| NCI-H838 | 1.02 | 0.6 | 0.951 | 1.08 | 0.902 | 0.604 | 0.474 | 0.596 | 0.46 | 0.403 | 0.642 | 1.05 | 0.866 | 0.815 | 0.236 | 0.242 | 0.259 | 0.812 | 0.737 | 0.699 |
| 201T | 1.04 | 0.954 | 1.01 | 1.04 | 0.823 | 0.712 | 0.666 | 0.681 | 0.632 | 0.628 | 0.82 | 1 | 0.902 | 1 | 0.331 | 0.343 | 0.401 | 0.953 | 0.918 | 0.865 |
| NCI-H1650 | 0.595 | 0.632 | 0.695 | 1.03 | 0.683 | 0.513 | 0.645 | 0.53 | 0.69 | 0.588 | 0.534 | 0.972 | 0.972 | 1.04 | 0.332 | 0.355 | 0.397 | 0.511 | 0.496 | 0.58 |
| HOP-62 | 1.47 | 0.771 | 0.93 | 1.04 | 1.06 | 0.391 | 0.297 | 0.355 | 1.07 | 0.361 | 0.763 | 1.04 | 0.871 | 0.913 | 0.238 | 0.271 | 0.243 | 0.716 | 0.508 | 0.522 |
| PC-3 [JPC-3] | 0.469 | 0.445 | 0.389 | 0.439 | 0.435 |  | 0.678 | 0.678 | 0.737 | 0.829 | 0.697 | 1.07 | 0.907 | 0.927 |  | 1.07 | 0.949 |  | 0.637 | 0.895 |
| COR-L23 | 0.708 |  | 0.942 | 1.06 | 1.18 | 0.657 | 0.583 | 0.539 | 1.23 | 0.796 | 0.901 | 0.644 | 0.472 | 0.597 | 0.2 | 0.193 | 0.208 | 0.522 | 0.543 | 0.423 |
| COR-L 105 | 0.34 | 0.351 | 0.334 | 0.333 | 0.314 | 0.39 | 0.424 | 0.382 | 0.44 | 0.397 | 0.418 | 0.876 | 0.839 | 0.661 | 1.34 | 1.06 | 0.988 | 0.615 | 0.706 | 0.66 |
| NCI-H1915 | 1.07 | 0.973 | 0.969 | 0.945 | 0.446 | 0.303 | 0.261 | 0.255 | 0.965 | 1.1 | 1.13 | 0.958 | 0.894 | 0.834 | 0.518 | 0.464 | 0.51 | 0.51 | 0.568 | 0.499 |
| PC-14 | 0.326 | 0.395 | 0.312 | 0.317 | 0.295 | 0.705 | 0.554 | 0.477 | 0.743 | 0.557 | 0.339 | 1.1 | 0.893 | 0.932 | 0.135 | 0.116 | 0.148 | 0.63 | 0.857 | 0.656 |
| NCI-H2126 | 0.644 | 0.719 | 0.742 | 0.76 | 0.747 | 0.645 | 0.593 | 0.628 | 0.489 | 0.513 | 0.5 | 1.08 | 1.02 | 1.03 | 0.82 | 0.743 | 0.672 | 0.89 | 0.684 | 0.723 |
| HARA | 0.763 | 0.627 | 0.758 | 0.687 | 0.535 | 0.561 |  | 0.634 | 0.43 | 0.317 | 0.293 | 0.98 | 0.945 | 0.682 | 0.254 |  | 0.269 | 0.507 | 0.509 | 0.388 |
| NCI-H23 | 1 | 1.02 | 1.05 | 1.12 | 0.748 | 0.392 | 0.379 | 0.343 | 0.641 | 0.521 | 0.538 | 0.471 | 0.452 | 0.513 | 0.706 | 0.654 | 0.74 | 0.75 | 0.622 | 0.725 |
| LK-2 | 0.931 | 0.705 | 0.886 | 0.88 | 0.985 | 0.69 | 0.548 | 0.704 | 0.628 | 0.752 | 0.493 | 0.2 | 0.229 | 0.242 | 0.283 | 0.266 | 0.298 | 0.27 | 0.247 | 0.346 |
